The values that follow come from patent US10683559B2, “G-protein coupled receptor (GPCR)-based biosensors and uses thereof” (Georgia Tech Research Corporation, priority 2014, dated 2020).

For one experiment, the target named is T1, GPR40 (Homo sapiens, UniProt O14842).
T1 construct: expressed in transfected cells; host or cells: S. cerevisiae W303 Δfar1, Δsst2, Δste2 (PPY140) or additionally Δste12 (PPY161), plasmid pESC-His3-PTEF1-GPR40 (pKM469 and derivatives)
Description: GPR40-based yeast sensor, GFP fluorescence by flow cytometry. In kind it is cell-based. The text has this: (§1) The GPCRs tested were the olfactory receptor OR1G1 (Sanz, G., Schlegel, C., Pernollet, J. C., and Briand, L. (2005) Comparison of odorant specificity of two human olfactory receptors from different phylogenetic classes and evidence for antagonism, Chemical Senses 30, 69-80) and the free fatty acid receptor GPR40 (Itoh, Y., et al. (2003) Free fatty acids regulate insulin secretion from pancreatic beta cells through GPR40, Nature 422, 173-176). First, OR1G1 and GPR40 sensing of even, medium-chain saturated fatty acids (C8-C16) using PFIG1-GFP(m) was tested. A reliable signal after fatty acid addition was not observed (FIGS. 23 and 24). Hypothesizing that the large standard deviation of PFIG1-GFP(m) contributed to the inability to detect medium-chain fatty acids, PFIG1-GFP(s) was tested as the reporter plasmid. Using PFIG1-GFP(s) enabled the OR1G1 based-sensor to detect C8, C10 and C12 fatty acids with 13-, 17-, and 13-fold increases in signal after activation, respectively (FIGS. 8-9). Using PFIG1-GFP(s) also enabled the GPR40 based-sensor to detect C8, C10 and C12 saturated fatty acids, with 14-, 25-, and 16-fold increases in signal after activation, respectively (FIGS. 10-11). It was also explored whether the OR1G1-based sensor signal could be improved by expressing the OR1G1 from a single-copy (s) rather than a multi-copy (m) plasmid.
(§2) To engineer a system in which medium-chain fatty acid sensing would trigger only GFP transcription, Ste12 was replaced in the yeast strain carrying deletions of Ste2, Sst2, and Far1 with one of two synthetic transcription factors (STFs): 1) STF1, which is composed of the Ste12 phosphorylation domain and the Gal4 activation and DNA binding domains (Pi, H. W., Chien, C. T., and Fields, S. (1997) Transcriptional activation upon pheromone stimulation mediated by a small domain of Saccharomyces cerevisiae Ste12p, Mol Cell Biol 17, 6410-6418) and 2) STF2, which is composed of the Ste12 phosphorylation domain, the synthetic B42 activation domain and the bacterial LexA DNA binding domain (Golemis, E. A., and Brent, R. (1992) Fused Protein Domains Inhibit DNA-Binding by Lexa, Mol Cell Biol 12, 3006-3014 and Peralta-Yahya, P., Carter, B. T., Lin, H. N., Tao, H. Y., and Comish, V. W. (2008) High-Throughput Selection for Cellulase Catalysts Using Chemical Complementation, J Am Chem Soc 130, 17446-17452). STF1 can activate transcription of GFP placed under control of a synthetic minimal promoter carrying five Gal4 DNA binding sites (PGal4(5×)). STF2 activates transcription of GFP placed under control of a synthetic minimal promoter carrying four lexA DNA binding sites (PLexA(4×)) (FIGS. 17 and 18).
(§3) For the Ste2/α-factor sensor, strains PPY638, PPY639, PPY640, PPY641 were grown overnight in synthetic complete media with 2% glucose and lacking leucine (SD glu (L^−)). The next day, the cells were used to inoculate a 20 mL of SD glu (L^−) to an OD600=0.06 and incubated for 18 hrs at 30° C. (150 r.p.m.). The cells were centrifuged, re-suspended in 5 mL SD glu (L^−), used to innoculate 5 ml of fresh SD glu (L^−) to OD600=0.6. α-factor (0-100 nM, Zymo Y1001) was added to the medium and incubated for 4 hrs at 30° C. (150 r.p.m.) before reading for cell fluorescence using a flow cytometer. For the OR1G1- and GPR40-based sensors using Ste12/PFIG1-GFP response unit, strains PPY643, PPY644 were grown overnight in SD glu and lacking histidine and leucine (SD glu (HL^−)). The next day, the cells were used to inoculate a 20 mL of SD glu (HL^−) to an OD600=0.06 and incubated for 18 hrs at […] (150 r.p.m.). The cells were centrifuged, re-suspended in 2 ml SD glu (HL^−) to OD600=0.6. C8, C10, C12, C14 and C16 saturated fatty acids (0-800 μM) were added to the medium and incubated for 4 hrs at 30° C. (150 r.p.m.) before reading for cell fluorescence using a flow cytometer. […]
(In general: A flow cytometer gives signals particle by particle.)

The target in another experiment is T2, OR1G1 (Homo sapiens, UniProt P47890).
T2 construct: expressed in transfected cells; host or cells: S. cerevisiae W303 Δfar1, Δsst2, Δste2 (PPY140) or additionally Δste12 (PPY161), plasmid pESC-His3-PTEF1-OR1G1 (pKM269 and derivatives)
T2 sequence (P47890 with tags, fused parts or gaps limits assumed): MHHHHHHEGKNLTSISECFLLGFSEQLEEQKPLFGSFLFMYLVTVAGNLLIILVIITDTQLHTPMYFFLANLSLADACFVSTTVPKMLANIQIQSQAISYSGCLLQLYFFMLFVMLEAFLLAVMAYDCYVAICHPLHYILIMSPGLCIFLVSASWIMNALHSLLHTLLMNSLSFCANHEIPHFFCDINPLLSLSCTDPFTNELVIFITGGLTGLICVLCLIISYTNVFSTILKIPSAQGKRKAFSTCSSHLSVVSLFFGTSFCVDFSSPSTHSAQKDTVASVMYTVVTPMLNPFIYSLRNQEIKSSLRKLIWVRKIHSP
The experiment can be described thus: OR1G1-based yeast sensor, GFP fluorescence by flow cytometry. The note with it: for detection by the OR1G1-sensor, acid added independently: 250 μM, each acid alone (FIG. 27); for detection by the OR1G1-sensor in a mixture of fatty acids: mixture of C10, C14 and C16 acids (FIG. 27). It counts as cell-based.
Source text: as §1, §2, §3

Where [1] appears, read: Ste12/PFIG1-GFP(s), maximum at C8 800 μM, C10 800 μM, C12 250 μM.
[2] abbreviates: W303 Δfar1, Δsst2, Δste2, reporter PFig1-GFP(s), TF Ste12.
The mark [3] stands for this setting: Ste12/PFIG1-GFP(s), maximum at C8 800 μM, C10 250 μM, C12 500 μM.
Setting [4] is: C8, C10, C12 fatty aldehydes and alcohols, C10 methyl- and ethyl-esters, dose response.
Setting [5] is: 0 or 500 μM decanoic acid, PFig1-GFP(s), compared with no GPCR.
[6] abbreviates: W303 Δfar1, Δsst2, Δste2, Δste12, 500 μM decanoic acid, PFig1-GFP(s).
[7] abbreviates: W303 Δfar1, Δsst2, Δste2, Δste12, reporter PGal4(5x)-GFP(m), TF STF1.
The mark [8] stands for this setting: W303 Δfar1, Δsst2, Δste2, Δste12, reporter PLexA(4x)-GFP(m), TF STF2.
The mark [9] stands for this setting: STF1/PGal4(5×)-GFP response unit, 800 μM decanoic acid.

T1 sequence (O14842 whole entry): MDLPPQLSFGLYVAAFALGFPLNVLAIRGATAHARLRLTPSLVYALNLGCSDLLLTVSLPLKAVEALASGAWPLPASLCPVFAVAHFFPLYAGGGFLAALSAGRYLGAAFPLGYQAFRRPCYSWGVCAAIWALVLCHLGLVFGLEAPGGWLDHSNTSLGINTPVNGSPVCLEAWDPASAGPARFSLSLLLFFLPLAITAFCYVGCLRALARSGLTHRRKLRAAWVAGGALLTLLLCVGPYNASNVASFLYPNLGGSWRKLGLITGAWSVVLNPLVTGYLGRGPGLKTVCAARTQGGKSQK

On to `CCCCCCCC(=O)O` [C8 acid], for which, at GPR40 (setting [1]), the “increase in signal after activation” value came to 14 fold. At GPR40 (setting [2]), the Dynamic range was 14, the GFP max amounted to 197 AU and the Linear range is 36 to 250 µM. Further, at OR1G1 (setting [3]), the “increase in signal after activation” value is 13 fold. On OR1G1 (setting [2]), this compound yielded a Dynamic range of 13, a GFP max of 239 AU and a Linear range of 19 to 250 µM.

For `CCCCCCCC=O` [C8 aldehyde], on GPR40 (setting [4]), the “increase in signal after activation (specificity)” value is recorded as “unable to detect”.

On to `CCCCCCCCCC(=O)O` [C10 acid, decanoic acid], for which the “GFP fluorescence in presence of GPCR” value at GPR40 (setting [5]) and on OR1G1 (setting [5]) was “increase in GFP fluorescence” each time. Moreover, the “increase in signal after activation” value on GPR40 (STF1/PGal4(5×)-GFP response unit, 500 μM decanoic acid) was found to be 28 fold; on GPR40 (setting [1]) it was 25 fold; at OR1G1 (setting [9]), 30 fold; on OR1G1 (STF2/PLexA(4×)-GFP response unit, 800 μM decanoic acid) it was 7 fold; at OR1G1 (setting [3]) it was 17 fold. Moreover, on GPR40 (STF2/PLexA(4×) response unit, 500 μM C10 acid (FIG. 22)), the “increase in GFP expression” value worked out at 4 fold. Besides, the “GFP fluorescence in the absence of Ste12” value at GPR40 (setting [6]) and on OR1G1 (setting [6]) was “no observable increase in GFP fluorescence” in each case. For the same compound, the Dynamic range at GPR40 (setting [7]) turned out to be 28; on GPR40 (setting [8]), 4; on GPR40 (setting [2]) it was 25; at OR1G1 (setting [7]), 30; on OR1G1 (setting [8]), 7; at OR1G1 (setting [2]), 17. The GFP max was 573 AU on GPR40 (setting [7]); 501 AU on GPR40 (setting [8]); 339 AU on GPR40 (setting [2]); 1126 AU on OR1G1 (setting [7]); 405 AU at OR1G1 (setting [8]); 308 AU at OR1G1 (setting [2]). In addition, the Linear range fell in the range of 47 to 250 µM on GPR40 (setting [7]); 4 to 100 µM on GPR40 (setting [8]); 36 to 100 µM on GPR40 (setting [2]); 110 to 500 µM at OR1G1 (setting [7]); 2 to 100 µM at OR1G1 (setting [8]); 34 to 250 µM at OR1G1 (setting [2]). The “flow cytometry histogram of the biosensor strain” value on GPR40 (incubated with compound vs no compound (FIGS. 30A-30E)) is “shift of the population”. The “detection by the OR1G1-sensor, acid added independently” value (“detection … acid added independently” for short) on OR1G1 is listed as “able to detect”. For the same compound, the “linear range reaching to” value at OR1G1 (STF1/PGal4(5×)-GFP response unit) was determined as 500 µM. In addition, the “improvement in signal after activation over the Ste12/PFIG1-GFP(s) response unit” value at OR1G1 (setting [9]) is approximately 200%. The “linear range plateaued at” value on OR1G1 (Ste12/PFIG1-GFP(s) response unit) was determined as 250 µM. Further, the “increase in signal after activation with chromosomal GPA1 compared with Golf and GPA1-Golf” value on OR1G1 (above 250 μM decanoic acid) is listed as “greatest increase in signal after activation”. Also, the “detection by the OR1G1-sensor in a mixture of fatty acids” value (shortened to “detection … of fatty acids”) on OR1G1 is recorded as “not able to detect”; on OR1G1 (listed as decanoic acid), “inability”.

Turning to `CCCCCCCCCC=O` [C10 aldehyde], the “increase in signal after activation” value on GPR40 (at 125 μM) is on record as 3 fold. The “increase in signal after activation (specificity)” value on OR1G1 (setting [4]) is more than 3 fold.

With `CCCCCCCCCCCC(=O)O` [C12 acid], the “increase in signal after activation” value at GPR40 (setting [1]) worked out at 16 fold. Moreover, on GPR40 (setting [2]), the Dynamic range is 16, the GFP max was 222 AU and the Linear range lay in the range of 2 to 250 µM. Further, on OR1G1 (setting [3]), the “increase in signal after activation” value is 13 fold. In addition, at OR1G1 (setting [2]), the Dynamic range came to 13, the GFP max was 233 AU and the Linear range fell in the range of 1 to 250 µM.

Turning to `CCCCCCCCCCCC=O` [C12 aldehyde], the “increase in signal after activation” value at GPR40 (at 250 μM) stood at 3 fold.

On to `CCCCCCCCCCCCCC(=O)O` [C14 acid], for which, on OR1G1, the “detection … acid added independently” value is recorded as “able to detect” and the “detection … of fatty acids” value is “not able to detect”.

As to `CCCCCCCCCCCCCCCC(=O)O` [C16 acid], at OR1G1, the “detection … acid added independently” value is “able to detect” and the “detection … of fatty acids” value is listed as “not able to detect”.
